According to patent US20020168436A1, “Decursinol or derivative thereof as analgesic agent” (priority 2000, published 2002):

Columns and labels:
[1] = test system: primary mouse cortical culture; experiment: β-amyloid(1-42)-induced leakage of lactate dehydrogenase (LDH) from cultured neurons; format: cell-based; settings: 100 μM, 30 minutes before 25 μM β-amyloid(1-42); 24 and 48 hours; compared with β-amyloid(1-42) group; FIG. 10
Method: The culture of mouse cerebral neurons was divided into three groups. Neurons of one group received no treatment (control group). […] The degree of damage in neurons was determined by measuring the concentration of lactate dehydrogenase (LDH), which was released from the damaged or disrupted neurons into the culture medium, in accordance with the method of Wie et al. Samples of the culture medium were taken at 24 and 48 hours after the administration of β-amyloid(1-42), respectively, and their LDH concentrations were measured with a microplate reader.

[2] = test system: mice administered with β-amyloid(1-42); experiment: Passive avoidance test in mice given β-amyloid(1-42) into the cerebral ventricle; format: in vivo, mouse; settings: for dementia-preventive effect in passive avoidance test: FIGS. 7A and 7B
Method: (§1) The administration of β-amyloid(1-42) to a mouse was carried out in accordance with the method described by Laursen & Belknap(J. Pharmacol. Methods, 16, 355-357 (1986)). Specifically, 5 μl of phosphate-buffered saline containing 1.85 μg of β-amyloid(1-42) was put in a 50 μl Hamilton syringe fitted with a 26 gauge needle, the tip of the needle was inserted into the bregma of the mouse and then the β-amyloid(1-42) solution was administered thereto. Each mouse of a control group received an equal amount of β-amyloid(42-1) in place of β-amyloid(1-42). A passive avoidance test was carried out at days 1-2 (day 1: training, day 2: test) and a Y-maze test, at days 3-4 (day 3: training, day 4: test) after the administration.
In order to examine the learning and memory-retention ability of a mouse, a passive avoidance test was carried out in accordance with the method described in Song et al., J. Neurochem., 71, 875-878 (1998), as follows.
A passive avoidance case equipped with a light room and a dark room was prepared, the floor of the dark room being designed to deliver an electrical shock to a test animal. First, a mouse was put in the light room and, upon entering the dark room, it received an electrical shock at 0.25 mA for 1 sec. Twenty-four hours after the training, the mouse was put in the light room again and the time it took to enter the dark room was measured as a passive avoidance time. The maximum time was set at 300 sec., i.e., in case when the mouse took more than 300 sec. to enter the dark room, the passive avoidance time was determined to be 300 sec.
Forty 4- to 5-week old mice each weighing 20 to 25 g were divided into four groups of equal number. The Angelicae gigas Nakai extract prepared in Example 1 was dissolved in water to concentrations of 0.08% (w/v) and 0.1% (w/v), respectively, and the mice of two groups were provided with the resulting solutions instead of water for 4 weeks at a daily dose of 8 ml of the solution/mouse. The mice of the other two groups were provided with normal drinking water for 4 weeks. Thereafter, the mice of one of the two normal drinking water groups were administered into their cerebral ventricle with 1.85 μg of β-amyloid(42-1) (“control group”) and the mice of the remaining three groups, with β-amyloid(1-42) (Aβ1-42), as in Reference Example 1. Then, a passive avoidance test was carried out for each group of mice as in Reference Example 2 and the data attained were averaged for each group.
Fifty 4- to 5-week old mice each weighing 20 to 25 g were divided into five groups by equal number. Ferulic acid was dissolved in water to concentrations of 0.002 % (w/v), 0.004 % (w/v) and 0.006 % (w/v), respectively, and the mice of three groups were provided with the resulting solutions instead of water for 4 weeks at a daily dose of 8 ml of the solution/mouse. The mice of the other two groups were provided with normal drinking water for 4 weeks. Thereafter, the mice of one of two normal drinking water groups were administered into their cerebral ventricle with 1.85 μg of β-(42-1) (“control group”) and the mice of the remaining four groups, with β-amyloid(1-42) (Aβ1-42), as in Reference Example 1. Then, a passive avoidance test was carried out for each group of mice as in Reference Example 2 and the data attained were averaged for each group.
Forty 4- to 5-week old mice each weighing 20 to 25 g were divided into four groups of equal number. […]

[3] = test system: choline acetyltransferase (ChAT); experiment: Immunohistochemical staining of ChAT in septal nucleus; format: in vivo, mouse; settings: 0.006% (w/v) in drinking water for 4 weeks; 5 days after β-amyloid(1-42); FIG. 9c
Method: Three groups of mice were administered with ferulic acid and/or β-amyloid in accordance with the method of (1). 5 days after the administration of β-amyloid, immunohistochemical staining was carried out according to the method of (1) except for employing 1:750 dilution of anti-choline-acetyltransferase (ChAT) antibody (Chemicon) in order to stain ChAT, an enzyme for acetylcholine synthesis, in the septal nucleus wherein acetylcholine neurons are distributed.

[4] = test system: mice administered with β-amyloid(1-42); experiment: Y-maze test in mice given β-amyloid(1-42) into the cerebral ventricle; format: in vivo, mouse; settings: for alternation behavior (%): compared with the group given β-amyloid(1-42) only
Method: as §1
Spontaneous alternation behavior of a mouse was examined by a Y-maze test in accordance with the method described in Starter et al., Psychopharmacology, 94, 491-495 (1988) as follows.
The Y-maze consisted of three arms shaped like Y. A test mouse was placed in one of the arms such that it faced the arm's terminal and allowed to roan freely through the three arms for […]. The number of alternation was determined by counting the number of occasions the mouse passed the three arms consecutively. Spontaneous alternation behavior was determined as the percentage of the alternation number based on the total number of arm entries.
Further, Y-maze tests were carried out employing the above-prepared mice as in Reference Example 3.
Forty 4- to 5-week old mice each weighing 20 to 25 g were divided into four groups of equal number. Decursinol was dissolved in corn oil, mixed with a mouse fodder, and the mice of two groups were provided with the resulting fodder for 4 weeks at a daily dose of 7.5 mg decursinol/kg or 15 mg decursinol/kg. The mice of the other two groups were provided with a normal mouse fodder containing an equal amount of corn oil as above for 4 weeks. Thereafter, the mice of one of the two normal fodder groups were administered, into their cerebral ventricle, with 1.85 μg of β-(42-1) (“control group”) and the mice of the remaining three groups, with β-amyloid(1-42) (Aβ1-42), as in Reference Example 1. Then, a passive avoidance test and a Y-maze test were carried out for each group of mice as in Reference Examples 2 and 3, respectively, and the data attained were averaged for each group.

OX-42 = experiment: Immunohistochemical staining of OX-42 in pyriform cortex and amygdaloid nucleus; format: in vivo, mouse; settings: 0.006% (w/v) in drinking water for 4 weeks; 1 day after β-amyloid(1-42); compared with β-amyloid(1-42) only; FIGS. 8c and 8f
Method: 4- to 5-week old mice each weighing 20 to 25 g was divided into three groups. Ferulic acid was dissolved in water to a concentration of 0.006% (w/v), and the mice of one group were provided with the resulting solution instead of water for 4 weeks. The mice of other two groups were provided with normal drinking water for 4 weeks. Thereafter, the mice of one of two normal drinking water groups were administered, into their cerebral ventricle, with 1.85 μg of β-amyloid(42-1) (“control group”) and the mice of the remaining two groups, with β-amyloid(1-42) (Aβ1-42), as in Reference Example 1.
One day after the administration of β-amyloid, each of the mice was anesthetized with sodium pentobarbital and its abdomen was incised. The mouse was fixed by passing 4% paraformaldehyde through its left ventricle and its brain was excised.
In accordance with the method described in Cho et al., J. Comp. Neurol., 369: 264-276(1996), a section was prepared from the excised brain and immunohistochemical staining was carried out in order to stain […] in the pyriform cortex and the amygdaloid nucleus by employing 1:500 dilution of anti-OX-42 antibody (Halan (Sera-Lab)).

LDH concentration in culture medium [1] | SMILES | decrease in the passive avoidance response time ([2]; 0.002, 0.004 and 0.006% (w/v) in drinking water for 4 weeks before β-amyloid(1-42), FIG. 3A) | passive avoidance response time ([2]; 0.006% (w/v) in drinking water for 1, 2, 3 and 4 weeks, FIG. 3B) | dementia-preventive effect in passive avoidance test ([2]; alone in a low amount: 0.002% or 0.003% (w/v) ferulic acid) | ChAT staining [3] | number of arm entries (spontaneous movement) ([4]; 0.006% (w/v) for 1 to 4 weeks, FIG. 4B) | alternation behavior (%) ([4]; 0.006% (w/v) for 1 to 4 weeks, FIG. 4A) | OX-42 staining (OX-42) | decrease in the passive avoidance response time due to β-amyloid(1-42) ([2]; 7.5 or 15 mg/kg daily in fodder for 4 weeks, FIG. 6A) | dementia-preventive effect in passive avoidance test ([2]; alone in a low amount: 2 mg/kg or 3 mg/kg decursinol) | number of arm entries (spontaneous movement) ([4]; 7.5 or 15 mg/kg daily in fodder for 4 weeks, FIG. 6C) | alternation behavior (%) ([4]; 7.5 or 15 mg/kg daily in fodder for 4 weeks, FIG. 6B)
much lower | COc1cc(/C=C/C(=O)O)ccc1O [ferulic acid] | prevented dose-dependently | becomes increasingly higher with the period of administration | no dementia-preventive effect | the decrease was suppressed | nearly the same for all groups | higher and increased in proportion to the period of administration | much less pronounced |  |  |  | 
 | CC1(C)Oc2cc3oc(=O)ccc3cc2C[C@@H]1O [decursinol] |  |  |  |  |  |  |  | prevented | no dementia-preventive effect | nearly the same for all groups | higher and increased dose-dependently
